Data: US20250359578A1, “WATER-SOLUBLE CREATINE AGGLOMERATE” (Alzchem Trostberg GmbH, priority 2022, published 2025)

Experiments:
Format in all cases: physicochemical
[1] = Determination of the dissolution rate (mass of filter residue); settings: 1.75 g in 175 ml water at 23° C., stirred 10 seconds
Excerpt: The moist filter residue is dried. The mass of the filter residue serves as a measure of the dissolution rate; the lower the mass, the better the dissolution rate.

[2] = Determination of the grain size distribution (laser diffraction, HELOS/KR)
Protocol: 7. Determination of the Grain Size Distribution
The grain size distribution was determined using a laser diffraction method on a “HELOS/KR” grain size measuring device from Sympatec GmbH. The R6 measuring aperture was used, which covers a measuring range of 0.5 to 1750 μm. The sample was fed via a vibrating chute with 60% power and a dispersion pressure of 2.5 bar. The software version “WINDOX 5.1.2.0, LD” was used for evaluation. Setting the trigger conditions: Time base 100.00 ms, start at c.opt>=1.0%, validity c.opt from 1.0% to 14.0%, stop at 5.000s c.opt<=0.9% or 10.000s real time. The x10, x50 and x90 values were used to assess the agglomerate quality, represented as the distribution sum Q3 in a histogram of the grain size distribution.

[3] = Determination of pourability (drainage funnel); design: key: Solid trickles through the 2.5 mm outlet: Grade 1; Solid trickles through the 5 mm outlet: Grade 2; Solid trickles through the 8 mm outlet: Grade 3; Solid trickles through the 12 mm outlet: Grade 4; Solid trickles through the 18 mm outlet: Grade 5; Solid does not trickle through the 18 mm outlet: Grade 6; settings: grade by outlet diameter of test funnel, 50 mL sample; lower grade is better
Protocol: 2. Determination of Pourability (Drainage Funnel):
The test equipment consists of five test funnels with the same diameter (36 mm inner diameter) and 28 degree tilt, but with different outlet diameters (2.5 mm; 5 mm; 8 mm; 12 mm and 18 mm). A 50 mL sample of creatine or the creatine formulation is filled into the test funnel, whereby the outlet is closed from below so that no material can drain during filling. In the next step, the outlet is opened completely—without shaking the test funnel—so that the entire outlet cross-section is released. The evaluation parameter is the diameter at which the solid trickles through independently and without external influence.
The lower the grade, the better the pourability.

[4] = Determination of the angle of repose (DIN ISO 4324)
Protocol: 3. Determination of the Angle of Repose
The angle of repose was determined according to the method DIN ISO 4324 (1983-12) Surfactants; powders and granules; determination of the angle of repose. The smaller the angle of repose, the better the flow properties.

[5] = Determination of flowability (Evolution Powder Tester); settings: compression, no time consolidation
Protocol: 4. Determination of Flowability
Flowability of solids (powders and agglomerates) is determined using the “Evolution Powder Tester” measuring device from PS Prozesstechnik GmbH, Basel, Switzerland. Flowability is shown in the dimensionless number [ffc]. The method used is determination by compression on the Evolution Powder Tester; no time consolidation is carried out. For this purpose, 25 mL of the solid is weighed into the measuring cell and placed in the measuring device. After starting the measurement, the solid is compressed in the measuring cell at a stamping speed of 15 mm per minute and a force (F1) of 10000 kPa for 30 seconds. The resulting solid compact in the measuring cell is then loaded again with a stamping speed of 10 mm per minute and slowly increasing force (F2) until the solid compact breaks. The ratio of the force (F1) for compression and the force (F2) for breaking the compact corresponds to the flowability [ffc] and is calculated using the formula: […]
The following assessment applies to the classification of flowability [ffc]: […]

[6] = Determination of dustiness (DustView II); settings: 30.0 g sample, maximum attenuation plus value at 30 seconds
Protocol: 5. Determination of Dustiness
The dustiness of solids (powders and agglomerates) is represented in the dimensionless dust number. The dust number is determined using the DustView II dust measuring device from Palas GmbH, Karlsruhe.
Thereby, 30.0 g of a sample is weighed and placed in the funnel on the flap. The measurement is then started by pressing a button on the control panel. The flap opens and the solid falls freely into the dust box. The impact of the solid material whirls up the dust particles. As a result, the light beam emitted by the laser is attenuated by the swirling dust and the attenuated light beam is detected at the receiver. The degree of attenuation (transmission signal) compared to the light beam emitted by the light source is a measure of the dustiness of the solid. A value of 100 means the maximum possible attenuation of the light beam and a value of 0 means no attenuation of the light beam. To determine the dust number, the value of the maximum attenuation of the light beam is added to the value at 30 seconds after the start of the measurement and output as the dust number.
The lower the dust number, the less dusty the solid is.

[7] = Determination of the bulk density (DIN ISO 697)
Protocol: 6. Determination of the Bulk Density
The bulk density was determined according to the method DIN ISO 697 (1984-01) surfactants; detergents; determination of bulk density; method by measuring the mass of a given volume.
The higher the bulk density, the more advantageous the handling.

| Structure (SMILES) | Undissolved portion to 1.75 g [1] [mg] | Grain size distribution ×50 value ([2]; distribution sum Q3, listed as non-ground creatine monohydrate, monohydrate) [μm] | Pourability [3] | Angle of repose [4] [°] | Flowability [ffc] [5] | Dustiness [dust number] [6] | Bulk density [7] [g/L] | Grain size distribution ×10 value ([2]; distribution sum Q3) [μm] | Grain size distribution ×90 value ([2]; distribution sum Q3) [μm] | Grain size distribution ×50 value ([2]; distribution sum Q3, monohydrate) [μm] |
| --- | --- | --- | --- | --- | --- | --- | --- | --- | --- | --- |
| CN(CC(=O)O)C(=N)N.O [creatine monohydrate] | 632.9 | 171 |  |  |  |  |  |  |  |  |
| CN(CC(=O)O)C(=N)N.O [Example 6, creatine monohydrate] |  |  | 6 | 54 | 1.9 | 23.2 | 270 | 1.32 | 45.8 | 13.0 |
